In patent US20150126465A1, “PROCESS FOR PRODUCING DERIVATIVES OF PYROSTEGIA VENUSTA, DERIVATIVES OF PYROSTEGIA VENUSTA, PHARMACEUTICAL COMPOSITIONS AND ITS USES” (priority 2011, published 2015) one finds MIC and MFC data, which are given here for five compounds.

≈ marks a conversion by molar mass, not a printed value. Like-named read-outs stand apart in the source and are kept apart here.

Common to all, as to format: cell-based
One assay deals with Candida albicans USP 1. Put plainly: MIC/CFM by microdilution (CLSI M27-A2). Here is the method:
(§1) Pure substances termed P1 and P2 previously dissolved in 20% DMSO, were diluted in RPMI medium, with final concentrations of 96 μg.mL-1. […] The same was also tested individually, diluted in RPMI medium, with initial concentration of 1 μL.mL-1. […] Cultures of Candida sp. were prepared and standardized in […] saline solution at 0.85%. For inoculums standardization, a spectrophotometer equipment was used, with wavelength at 530 nm and absorbance adjustment between 0.130 and 0.150, having as white the saline solution free of inoculum or any other contaminant, corresponding to concentrations of 10^6 CFU/mL. In this condition the inoculum “mother” was diluted 50 times and from this inoculum “child” the dilution was performed 20 times to obtain a standard inoculum in 10^3 cells per well. […] To aid in the growth view, were added to the wells dye 50 μL 2,3,5-triphenyltetrazolium chloride (TTC) at 5 mg.mL “1, being performed the readings after 4 hours of incubation. Prior to the addition of dye, aliquots of 96-well plate were transferred to Petri with Agar-Sabouraud Dextrose to determine the Minimum Fungicidal Concentration. Plates were incubated for 24 hours at 35° C.
(In general: Broth dilution looks for growth in wells or tubes with falling amounts of substance.)

The subject of assay [1] is Candida albicans OF-M3-20. Put plainly: MIC/CFM by microdilution (CLSI M27-A2). The protocol:
as §1

The subject of assay [2] is Candida albicans OF-M7-19. Nature of the assay: MIC/CFM by microdilution (CLSI M27-A2). Here is the method:
as §1

A further assay has as its system Candida krusei ATCC 6258. Put plainly: MIC/CFM by microdilution (CLSI M27-A2). Set-up: key to MIC: —: There was no growth inhibition.
The subject of assay [3] is Candida tropicalis USP B3. Put plainly: MIC by microdilution (CLSI M27-A2). Set-up: key: —: There was no growth inhibition.
For assay [4], the system named is Candida guilhermondii USP. Nature of the assay: MIC/CFM by microdilution (CLSI M27-A2). Set-up: key to MIC: —: There was no growth inhibition.
Assay [5] deals with Candida parapsilosis USP 1933. Put plainly: MIC/CFM by microdilution (CLSI M27-A2). Set-up: key to MIC: —: There was no growth inhibition.
Assay [6] deals with Candida albicans ATCC 10231. Nature of the assay: MIC/CFM by microdilution (CLSI M27-A2).
Another assay deals with C. Albicans USP 2. Put plainly: MIC/CFM against Candida sp. strains. The following applies: Table 14, C. Albicans USP 2.
Another assay has as its system Candida glabrata ATCC. Put plainly: MIC/CFM against Candida sp. strains. To be noted: Nakaseomyces glabratus; Table 14, Candida glabrata ATCC.
The subject of the next assay is Candida krusei USP 2223. Put plainly: MIC by microdilution (CLSI M27-A2). Set-up: key: —: There was no growth inhibition.
For assay [7], the system named is Candida parapsilosis ATCC 22019. Put plainly: MIC/CFM by microdilution (CLSI M27-A2).
The subject of assay [8] is Candida albicans USP 1565. Put plainly: MIC by microdilution (CLSI M27-A2). Also noted: key: —: There was no growth inhibition.
For assay [9], the system named is Trichophyton rubrum ATCC MYA-3108. Nature of the assay: MIC by microdilution, filamentous fungi (CLSI M38-A). The following applies: Table 11, Trichophyton rubrum ATCC MYA-3108.
For assay [10], the system named is Candida tropicalis USP 1658. Put plainly: MIC by microdilution (CLSI M27-A2). Set-up: key: —: There was no growth inhibition.
Assay [11] has as its system Phomopsis longicolla (soy isolate). Nature of the assay: MIC by microdilution, filamentous fungi (CLSI M38-A). The following applies: Table 13, Phomopsis longicolla- soy, 7 days, 28° C. The protocol: (§2) Pure substances termed P1 and P2 previously dissolved in 20% DMSO, were diluted in RPMI medium, with final concentrations of 96 μg.mL-1. […] Cultures of filamentous fungi described below were inoculated in Agar-Batata Dextrose medium and inoculated for 7 days, at 28° C. Colonies of cultures inoculated for 7 days in an oven at 28° C. were shrouded with 0.85% saline solution, scraped and then transferred to conical tubes. After resting for 5 minutes, the supernatant was transferred to new conical tubes for subsequent quantification in spectrophotometer, at 530 nm, with the transmittance adjustment of 80-82% for A. niger and 70% for other microorganisms. After adjustment, there was a 1:50 dilution in RPM. The determination of Minimum Inhibitory Concentration was performed after 7 days, at 28° C. After the incubation period, aliquots of 96-well plates were transferred to Petri plates with Potato Dextrose Agar, to determine the Minimum Fungicidal Concentration. Plates were inoculated for more 7 days, at 28° C.

For assay [12], the system named is Trichophyton menthagrophyton ATCC 9533. The description is as above. To be noted: Table 13, Trichophyton menthagrophyton ATCC 9533, 7 days, 28° C. Here is the method:
as §2

In assay [13] the test system is Microsporum canis ATCC 32903. Described as above. The following applies: Table 13, Microsporum canis ATCC 32903, 7 days, 28° C. Here is the method: as §2
Setting [14] is: Table 11, C. Tropicalis USP 1658.
Setting [15] is: Table 11, C. parapsilosis USP 1933.

On to `CC1OC(OC2C(O)C(COC(=O)/C=C/c3ccc(O)c(O)c3)OC(OCCc3ccc(O)c(O)c3)C2O)C(O)C(O)C1O` (stereo not drawn) [Fraction P3, iso-verbascoside], for which the MIC with Candida albicans USP 1 (Candida albicans, USP1, Table 14, C. Albicans USP 1, read-out: MIC) was found to be 1.5 µg/mL (≈ 2.4 µM); in assay [1] (Candida albicans, OFM320, Table 14, C. Albicans OF M3-20, read-out: MIC), 3 µg/mL (≈ 4.8 µM); in assay [2] (Candida albicans, OFM719, Table 14, C. Albicans OF M7-19, read-out: MIC) it was 0.75 µg/mL (≈ 1.2 µM); in the assay on Candida krusei ATCC 6258 (Pichia kudriavzevii, ATCC6258, Table 14, C. krusei ATCC, read-out: MIC), 1.5 µg/mL (≈ 2.4 µM); in [3] (Candida tropicalis, USPB3, Table 14, C. Tropicalis UPS B3, read-out: MIC) it was 6 µg/mL (≈ 9.61 µM); in assay [4] (Table 14, Candida guilhermondi USPATCC, read-out: MIC), 1.5 µg/mL (≈ 2.4 µM). Also, the MIC in [5] (Lodderomyces parapsilosis, USP1933, Table 14, C. parapsilosis USP 1933 ATCC, read-out: MIC) came to 3 µg/mL (≈ 4.8 µM); in assay [6] (Candida albicans, ATCC10231, Table 14, C. Albicans ATCC 10231, read-out: MIC), 3 µg/mL (≈ 4.8 µM); with C. Albicans USP 2, 3 µg/mL (≈ 4.8 µM); with Candida glabrata ATCC, 0.375 µg/mL (≈ 0.6 µM); with Candida krusei USP 2223 (Pichia kudriavzevii, USP2223, Table 14, C. krusei USP 2223, read-out: MIC), 1.5 µg/mL (≈ 2.4 µM); in assay [7] (Lodderomyces parapsilosis, ATCC22019, Table 14, C. parapsilosis ATCC 22019, read-out: MIC) it was 1.5 µg/mL (≈ 2.4 µM). Also, the MFC in the assay with Candida krusei ATCC 6258 (Pichia kudriavzevii, ATCC6258, Table 14, C. krusei ATCC, read-out: CFM (Minimum Fungicidal Concentration)) came to 12 µg/mL (≈ 19.2 µM); in assay [4] (Table 14, Candida guilhermondi USPATCC, read-out: CFM (Minimum Fungicidal Concentration)) it was 6 µg/mL (≈ 9.61 µM).
For the compound `OC(Cn1cncn1)(Cn1cncn1)c1ccc(F)cc1F` [Fluconazol], the MIC in assay [8] (Candida albicans, USP1565, Table 11, C. Albicans USP 1565, read-out: MIC) was less than 1 µg/mL; in assay [9] (read-out: MIC) it was 16 µg/mL (≈ 52.2 µM); in the assay on Candida krusei ATCC 6258 (Pichia kudriavzevii, ATCC6258, Table 11, C. krusei ATCC 6258, read-out: MIC) it was 8 µg/mL (≈ 26.1 µM); in assay [3] (Candida tropicalis, USPB3, Table 11, C. Tropicalis USP B3, read-out: MIC) it was 1 µg/mL (≈ 3.27 µM); in [4] (Candida, Table 11, C. guilhermondii USP, read-out: MIC), less than 1 µg/mL; in assay [10] (Candida tropicalis, USP1658, Table 11, C. Tropicalis USP 1658, read-out: MIC) it was less than 1 µg/mL. Moreover, the MIC in assay [5] (Lodderomyces parapsilosis, USP1933, Table 11, C. parapsilosis USP 1933, read-out: MIC) is less than 1 µg/mL; in the assay with Candida krusei USP 2223 (Pichia kudriavzevii, ATCC2223, Table 11, C. krusei ATCC 2223, read-out: MIC), 64 µg/mL (≈ 209 µM).
In the case of `CN(C/C=C/C#CC(C)(C)C)Cc1cccc2ccccc12` [Terbinafina ®, Terbinafina], the MIC entry in [8] (Table 11, C. Albicans USP 1565) was “—”; in [9] (read-out: MIC), 0.25 µg/mL (≈ 0.858 µM); with Candida krusei ATCC 6258 (Table 11, C. krusei ATCC 6258), “—”; in assay [3] (Table 11, C. Tropicalis USP B3), “—”; in [4] (Table 11, C. guilhermondii USP), “—”; in assay [10] (setting [14]) it was “—”. For the same compound, the MIC entry in assay [5] (setting [15]) is on record as “—”; in the assay on Candida krusei USP 2223 (Table 11, C. krusei ATCC 2223), “—”.
With `CC(=O)N1CCN(c2ccc(OCC3COC(Cn4ccnc4)(c4ccc(Cl)cc4Cl)O3)cc2)CC1` (stereo not drawn) [Cetoconazol], the MIC in [8] (Table 12, C. albicans USP 1565, 48 h, 35° C.) was less than 0.125 µg/mL; in the assay on Candida albicans USP 1 (Table 12, C. albicans USP 1, 48 h, 35° C.), less than 0.125 µg/mL; in assay [1] (Table 12, C. albicans OF M3-20, 48 h, 35° C.), less than 0.125 µg/mL; in [2] (Table 12, C. albicans OF M7-19, 48 h, 35° C.), less than 0.125 µg/mL; with Candida krusei ATCC 6258 (Table 12, C. krusei ATCC 6258, 48 h, 35° C.), less than 0.125 µg/mL; in assay [11], less than 0.125 µg/mL. Besides, the MIC in assay [12] is 2 µg/mL (≈ 3.76 µM); in assay [13] it was 4 µg/mL (≈ 7.53 µM); in [4] (Table 12, C. guilhermondii USP, 48 h, 35° C.), 0.125 µg/mL (≈ 0.235 µM); in assay [10] (Table 12, C. tropicalis USP 1658, 48 h, 35° C.) it was “*<4 μg · mL^−1”; in assay [5] (Table 12, C. parapsilosis USP 1933, 48 h, 35° C.), less than 0.125 µg/mL; in assay [6] (Table 12, C. albicans ATCC 10231, 48 h, 35° C.), 32 µg/mL (≈ 60.2 µM). The MIC in the assay with Candida krusei USP 2223 (Table 12, C. krusei USP 2223, 48 h, 35° C.) was 2 µg/mL (≈ 3.76 µM); in assay [7] (Table 12, C. parapsilosis ATCC 22019, 48 h, 35° C.) it was less than 0.125 µg/mL.
Consider `C[C@@H]1[C@H](O)[C@@H](C)/C=C/C=C/C=C/C=C/C=C/C=C/C=C/[C@H](O[C@@H]2O[C@H](C)[C@@H](O)[C@H](N)[C@@H]2O)C[C@@H]2O[C@](O)(C[C@@H](O)C[C@@H](O)[C@H](O)CC[C@@H](O)C[C@@H](O)CC(=O)O[C@H]1C)C[C@H](O)[C@H]2C(=O)O` [AnfotericinaB, Anfotericina B], for which the MIC turned out to be 1 µg/mL (≈ 1.08 µM) in [8] (Table 11, C. Albicans USP 1565); 1 µg/mL (≈ 1.08 µM) in assay [9]; 1 µg/mL (≈ 1.08 µM) with Candida krusei ATCC 6258 (Table 11, C. krusei ATCC 6258); 2 µg/mL (≈ 2.16 µM) in assay [3] (Table 11, C. Tropicalis USP B3); 0.5 µg/mL (≈ 0.541 µM) in assay [11]; 4 µg/mL (≈ 4.33 µM) in assay [12]. Also, the minimum inhibitory concentration (MIC) in [13] was 1.56 µg/mL (≈ 1.69 µM); in assay [4] (Table 11, C. guilhermondii USP), 2 µg/mL (≈ 2.16 µM); in assay [10] (setting [14]), 1 µg/mL (≈ 1.08 µM); in assay [5] (setting [15]), 2 µg/mL (≈ 2.16 µM).

One may read the MIC as the lowest concentration that inhibits growth of the organism.
